Measurements published in patent publication USRE47193E1, “Selectively substituted quinoline compounds” (EISAI R&D MANAGEMENT CO., LTD., priority 2013, dated 2019).
“And” between values parts separate entries of the source, which are not always exact repeats. Identical values can stand only once. Like-named read-outs stand apart in the source and are kept apart here.

Columns and labels:
TLR7/8 [1] = tested on: T1, TLR7/8; experiment: Subsequent human PBMC assay, various TLR7/8 ligands, IL-6 and IFN-α blockade; assay type: cell-based
T1 construct: other: human PBMC; ligand SL4-Ig; individual donors 1-6; average of donors; ligand RNA40-DOTAP; individual donors; ligand R848; ligand R848
Experimental: (§1) Human PBMC Cell-Based Assay. Human peripheral blood mononuclear cells (PBMC) were isolated from freshly-drawn heparinized (10 USP units/ml, Hospira, Lakeforest, Ill.) healthy donor whole blood by density gradient (Histopaque® 1077, Sigma, Inc., St. Louis, Mo.). Briefly, 25 ml blood was diluted with 15 ml PBS (without Ca^2+, Mg^2+) in a 50 ml conical tube, and 12 ml Histopaque was underlaid using a spinal needle. Tubes were centrifuged for 45 minutes at 1200 rpm (350×g), and PBMC were collected from the buffy coat. Cells were then washed twice in PBS, and red blood cells were lysed by suspension in 5 ml ammonium chloride solution (1× Red Blood Cell Lysis Buffer, eBioscience) for 5 minutes at room temperature. After a final wash in PBS, PBMC were resuspended at a final concentration of 2×10^6/ml in RPMI-1640 media with L-glutamine (Invitrogen) and supplemented with 25 mM HEPES (Mediatech, Inc, Manassas Va.), 10% fetal bovine serum (HyClone, Logan, Utah), and Penicillin-Streptomycin-Glutamine (Mediatech) and plated at 100 ul/well (2×10^5 cells/well) in tissue culture treated 96-well plates (Falcon).
(§2) Antagonist compounds solubilized and serial diluted in 100% DMSO were added in triplicate to cells to yield a final concentration of 0.1% DMSO (v/v). Hydroxychloroquine (Acros Organics) solubilized and serial diluted in PBS was added in triplicate to cells. PBMC were incubated with antagonist compounds or HCQ for 30 minutes at 37° C., 5% CO2 before adding various TLR agonist reagents in 100 ul complete media per well as follows (final concentrations indicated): R848 (Resiquimod; GLSynthesis, Worcester, Mass.) at 1 uM for TLR7 and TLR8, LPS (Sigma) at 10 ng/ml for TLR4, and CpG-2216 (InvivoGen) at 5 ug/ml for TLR9. To prepare a TLR7/8 agonist that mimics RNA-containing auto-antibody immune complexes in lupus patients, a 26-mer RNA with a sequence derived from human U1 snRNA stem loop IV [(sequence: […]-[…] (SEQ ID NO: 2) with phosphorothioate backbone] was synthesized (Dharmacon, Inc., Lafayette, Colo.), which has been shown previously to be a potent TLR7 and TLR8 agonist. This RNA molecule was diluted to 2.5 μM in serum-free RPMI, and mouse anti-human single stranded DNA monoclonal antibody (MAB3034, Millipore, Inc., Billerica, Mass.), which also cross-reacts with RNA, was added at a 1:25 dilution or at 1 ug/ml. The resulting “RNA-Ig” stimulus was incubated at room temperature for 15-30 minutes before adding to cells. PBMC were incubated with the various TLR agonists for 20 hours at 37° C., 5% CO2. Cell culture supernatants were collected, and levels of various human cytokines were assessed as indicated by standard ELISA procedure according to the manufacturer's recommended protocol (BD Biosciences, Inc., San Diego, Calif.). In a subsequent assay (Table 6) the ability of ER-899742 to block stimulation of normal PBMC by various TLR7/8 ligands, but not DNA-mediated activation of TLR9, was examined. In this assay cells were plated at 1×10^5 cells/well in 100 ul in 96-well plates.

TLR7/8 [2] = tested on: T2, TLR7/8; experiment: as above; assay type: cell-based
T2 construct: other: human PBMC; ligand SL4-Ig; individual donors 1-6; average of donors; ligand RNA40-DOTAP; individual donors; ligand R848; ligand
Experimental: as §1, §2

[3] = read-out: IC50 IL-6 Ave., ligand R848, average of donors
[4] = read-out: IC50 IL-6 Ave., ligand RNA40-DOTAP, average of donors
[5] = read-out: IC50 IL-6 Ave., ligand SL4-Ig, average of donors
[6] = read-out: IC50 IFN-α Ave., ligand R848, average of donors
[7] = read-out: IC50 IFN-α Ave., ligand RNA40-DOTAP, average of donors
[8] = read-out: IC50 IFN-α Ave., ligand SL4-Ig, average of donors

## C[C@@H]1CN(c2ccc(C#N)c3ncccc23)C[C@H](C(=O)N[C@H]2CNC[C@H]2F)O1.Cl [ER-899742, (2R,6R)-4-(8-cyanoquinolin-5-yl)-N-[(3S,4R)-4-fluoropyrrolidin-3-yl]-6-methylmorpholine-2-carboxamide hydrochloride]
TLR7/8 [1]; read-out: IC50 IL-6, ligand R848, individual donors, hydrochloride
  IC50: 6.5 nM and 7 nM and 4.9 nM and 5.5 nM and 8.1 nM and 3.4 nM
TLR7/8 [1]; read-out: IC50 IL-6, ligand RNA40-DOTAP, individual donors, hydrochloride
  IC50: 23 nM and 54 nM and 33 nM and 29 nM and 14 nM and 35 nM
TLR7/8 [1]; read-out: IC50 IL-6, ligand SL4-Ig, individual donors 1-6, hydrochloride
  IC50: 3.2 nM and 4.3 nM and 2.5 nM and 3.3 nM and 7.7 nM
TLR7/8 [1]; [3]
  IC50: 5.9 nM
TLR7/8 [1]; [4]
  IC50: 31.3 nM
TLR7/8 [1]; [5]
  IC50: 4.2 nM
TLR7/8 [2]; [6]
  IC50: 11 nM
TLR7/8 [2]; [7]
  IC50: 13.9 nM
TLR7/8 [2]; [8]
  IC50: 1.4 nM
TLR7/8 [2]; read-out: IC50 IFN-α, ligand R848, individual donors, hydrochloride
  IC50: 12 nM and 11 nM and 10 nM
TLR7/8 [2]; read-out: IC50 IFN-α, ligand RNA40-DOTAP, individual donors, hydrochloride
  IC50: 9.6 nM and 18 nM and 11 nM and 17 nM
TLR7/8 [2]; read-out: IC50 IFN-α, ligand SL4-Ig, individual donors 1-6, hydrochloride
  IC50: 2.2 nM and 0.5 nM

## CCN(CCO)CCCC(C)Nc1ccnc2cc(Cl)ccc12 (stereo not drawn) [HCQ, hydroxychloroquine, reference compound]
TLR7/8 [1]; read-out: IC50 IL-6, ligand R848, individual donors
  IC50: > 10000 nM
TLR7/8 [1]; read-out: IC50 IL-6, ligand RNA40-DOTAP, individual donors
  IC50: 10000 nM and 10800 nM and > 10000 nM and 15500 nM and 18000 nM and 6100 nM
TLR7/8 [1]; read-out: IC50 IL-6, ligand SL4-Ig, individual donors 1-6
  IC50: 5200 nM and 3700 nM and 3200 nM and 3600 nM and 4300 nM and 4600 nM
TLR7/8 [1]; [3]
  IC50: > 10000 nM
TLR7/8 [1]; [4]
  IC50: 12100 nM
TLR7/8 [1]; [5]
  IC50: 4100 nM
TLR7/8 [2]; [6]
  IC50: 1950 nM
TLR7/8 [2]; [7]
  IC50: 598 nM
TLR7/8 [2]; [8]
  IC50: 392 nM
TLR7/8 [2]; read-out: IC50 IFN-α, ligand R848, individual donors
  IC50: 1250 nM and 2570 nM and 2030 nM
TLR7/8 [2]; read-out: IC50 IFN-α, ligand RNA40-DOTAP, individual donors
  IC50: 490 nM and 410 nM and 990 nM and 502 nM
TLR7/8 [2]; read-out: IC50 IFN-α, ligand SL4-Ig, individual donors 1-6
  IC50: 459 nM and 324 nM
